Test results from PMC10614203, “Synthesis, Structure–Activity Relationships, Radiofluorination, and Biological Evaluation of [^18F]RM365, a Novel Radioligand for Imaging the Human Cannabinoid Receptor Type 2 (CB2R) in the Brain with PET” (Journal of Medicinal Chemistry, 2023).

Biological target: T1, rat CB2R (Rattus norvegicus, UniProt Q9QZN9)
T1 construct: one spleen from a female SPRD rat expressing high levels of the receptor in the leukocytes; from tissue; host or cells: rat spleen (female SPRD rat; autoradiography also described with male F433 rats)
T1 sequence (Q9QZN9 1-360): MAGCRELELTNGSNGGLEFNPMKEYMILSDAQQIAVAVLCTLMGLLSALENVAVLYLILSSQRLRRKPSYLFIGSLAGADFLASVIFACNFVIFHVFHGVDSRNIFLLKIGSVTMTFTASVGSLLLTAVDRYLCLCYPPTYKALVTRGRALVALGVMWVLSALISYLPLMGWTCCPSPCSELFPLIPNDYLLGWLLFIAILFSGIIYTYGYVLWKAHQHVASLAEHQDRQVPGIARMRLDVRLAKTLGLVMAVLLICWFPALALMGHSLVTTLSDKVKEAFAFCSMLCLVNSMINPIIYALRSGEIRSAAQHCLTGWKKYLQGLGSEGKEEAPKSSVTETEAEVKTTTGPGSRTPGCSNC
Test: In vitro autoradiography on rat spleen cryosections
Type: binding
Settings: Figure S2
Excerpt: To complement the indirect determination of the affinity of RM365 toward the CB2R in vitro, we performed a direct binding study with the radiofluorinated ligand using preparations of CHO cells stably transfected with the cloned human receptor and one spleen from a female SPRD rat expressing high levels of the receptor in the leukocytes.[12] The results of the homologous competition study shown in Figure 6 confirm the good affinity of [^18F]RM365 toward the human CB2R with a KD value of about 2 nM. […] Furthermore, the measurement signal obtained from the incubation of [^18F]RM365 with the homogenate of rat spleen was in the range of the values obtained for the nonspecific binding of the radioligand toward the preparation of CB2R-transfected CHO cells. We conclude that RM365 binds the rat CB2R with lower affinity than the human CB2R but expect no significant interactions of the radioligand with nonspecific binding sites.[82] Because of the available rat model to assess the potential of [^18F]RM365 to cross the blood–brain barrier and to specifically label human CB2R—the hCB2R(D80N) model with high expression of human CB2R in the brain[31],[32],[66],[83]—we intended to confirm the initial findings from the rat homogenate by an autoradiographic study.
The in vitro autoradiographic experiments were performed according to a previously published protocol.[88] […]

- specific interaction with rat CB2R in spleen cryosections, in words: absence of a specific interaction
Compound: CC1(C)Cc2ccc(C#N)cc2[C@@H]1NC(=O)c1cc2cc([18F])ccc2[nH]1 [[^18F]RM365]
